Assay results published in patent US5753636A, “Injection solution for intramuscular and subcutaneous administration to animals” (priority 1993, dated 1998).
Like-named read-outs stand apart in the source and are kept apart here.

Experiments:
injection site [1] = settings: cited from earlier work
injection site [2] = test: Local tolerability / irritation at the injection site, general statements; settings: applicant's statement
injection site [3] = settings: in vivo
[4] = statement on known products, solvents or bases

## CC(O)CO (centres unmarked) [1,2-propanediol]
Injection site [1]; [4]
  local tolerability / irritation: highly irritant and have haemolytic effects

## N=C(N)NCCC[C@H](N)C(=O)O [L-arginine]
Injection site [2]
  local tolerability / irritation: excellent local tolerability

## NCCCC[C@H](N)C(=O)O [L-lysine]
Injection site [2]
  local tolerability / irritation: excellent local tolerability

## NCCC[C@H](N)C(=O)O [L-ornithine]
Injection site [2]
  local tolerability / irritation: excellent local tolerability

## [O]=[Mg] [MgO, Magnesium oxide]
Injection site [3]
  local tolerability / irritation: irritant for tissue

## OCCNCCO [diethanolamine]
Injection site [1]; in vivo
  local tolerability / irritation: very irritant

## NCCO [monoethanolamine]
Injection site [1]; [4]
  local tolerability / irritation: very irritant

## polyethylene glycol
Injection site [1]; in vivo
  local tolerability / irritation: highly irritant and have haemolytic effects
